# Laboratory results from US7273848B2, “Apolipoprotein A-I agonists and their use to treat dyslipidemic disorders” (priority 1997, dated 2007).
# Read-outs that look alike come from different tables or passages of the source. Non-standard residues stand in square brackets, D forms with d. Residues, ends and D or L forms follow the SMILES beside them. No end group written: not given here. Aib = CC(C)(N)C(=O)O
# How the values were obtained:
# [1] = target: T1, LCAT (purified from human plasma) (Homo sapiens, UniProt P04180); assay: LCAT activation assay; assay type: biochemical
# T1 construct: from tissue; host or cells: human plasma
# T1 sequence (P04180 25-440): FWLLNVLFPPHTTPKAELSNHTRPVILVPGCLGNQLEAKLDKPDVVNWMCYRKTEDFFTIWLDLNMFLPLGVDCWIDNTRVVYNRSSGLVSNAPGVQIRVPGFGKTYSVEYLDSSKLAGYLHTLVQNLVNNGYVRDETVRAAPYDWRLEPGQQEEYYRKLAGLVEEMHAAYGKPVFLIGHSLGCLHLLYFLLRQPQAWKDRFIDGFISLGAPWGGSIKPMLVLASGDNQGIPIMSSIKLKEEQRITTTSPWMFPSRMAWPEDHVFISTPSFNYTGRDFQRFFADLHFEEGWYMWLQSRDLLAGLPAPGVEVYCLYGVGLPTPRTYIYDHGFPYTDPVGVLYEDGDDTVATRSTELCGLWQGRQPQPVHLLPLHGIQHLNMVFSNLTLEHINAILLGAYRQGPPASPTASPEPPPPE
# Method in brief: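 Substrate SUVs of EPC or POPC with 14C-cholesterol (20:1 molar ratio), in 10 mM Tris, 0.14 M NaCl, 1 mM EDTA, pH 7.4, were preincubated with peptide or equal mass of plasma ApoA-I. Reaction started with human plasma LCAT; activation was measured as cholesterol-to-ester conversion relative to ApoA-I (100%).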
# [2] = Circular dichroism helicity determination; assay type: physicochemical; details: for He (%) free: unbound peptide 5 μM in 5 mM phosphate buffer, pH 7.4, 37° C.; for He (%) SUVs: peptide-SUV complexes (20:1 EPC:Chol., Ri=30 and Ri=50); for He (%) SUVs / He (%) TFE: 37° C.; for He (%) TFE: 5 μM peptide, 90% vol TFE
# Method in brief: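 Far-UV CD (190–260 nm) at 37° C on 5 μM peptide in 5 mM phosphate pH 7.4, free, with EPC:Chol 20:1 SUVs (Ri 30 or 50), lysophosphatidylcholine micelles (Ri 100) or 90% TFE. Spectra converted to molar ellipticity per residue; helicity from 222 nm ellipticity or CONTIN fitting to reference spectra, ±5%.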
# [3] = LCAT activation as compared with native human ApoA-I (= 100%), equivalent masses
# [4] = percent helicity, peptide-micelle complexes, Ri=100, 37° C.
Molecule,"ACTIVITY (%) LCAT [1, 3]",He (%) free ([2]; percent helicity),He (%) SUVs ([2]; percent helicity),"He (%) mics [2, 4]",He (%) TFE ([2]; percent helicity),ACTIVITY (%) LCAT [1],He (%) mics [2]
"CC(C)C[C@H](NC(=O)[C@H](C)NC(=O)[C@H](CCC(=O)O)NC(=O)[C@H](CC(C)C)NC(=O)[C@H](CC(C)C)NC(=O)[C@H](CCC(=O)O)NC(=O)[C@H](CC(N)=O)NC(=O)[C@H](CC(C)C)NC(=O)[C@H](CC(C)C)NC(=O)[C@H](CCC(=O)O)NC(=O)[C@H](CCCNC(=N)N)NC(=O)[C@H](Cc1ccccc1)NC(=O)[C@H](CC(C)C)NC(=O)[C@H](CC(=O)O)NC(=O)[C@H](CC(C)C)NC(=O)[C@@H](NC(=O)[C@@H]1CCCN1)C(C)C)C(=O)N[C@@H](CCCN)C(=O)N[C@@H](CCC(N)=O)C(=O)N[C@@H](CCCN)C(=O)N[C@@H](CC(C)C)C(=O)N[C@@H](CCCN)C(=O)O [peptide 14, PVLDLFRELLNELLEALOQOLO]",61%,70%,80%,96%,,,
"CC(C)C[C@H](NC(=O)[C@H](C)NC(=O)[C@H](CCC(=O)O)NC(=O)[C@H](CC(C)C)NC(=O)C(C)(C)NC(=O)[C@H](CCC(=O)O)NC(=O)[C@H](Cc1ccccc1)NC(=O)[C@H](CC(C)C)NC(=O)[C@H](CC(C)C)NC(=O)[C@H](CCC(=O)O)NC(=O)[C@H](CCCNC(=N)N)NC(=O)[C@H](Cc1ccccc1)NC(=O)[C@H](CCC(=O)O)NC(=O)[C@H](CC(=O)O)NC(=O)[C@H](CC(C)C)NC(=O)[C@@H](NC(=O)[C@@H]1CCCN1)C(C)C)C(=O)N[C@@H](CCCCN)C(=O)N[C@@H](CCC(N)=O)C(=O)N[C@@H](CCCCN)C(=O)N[C@@H](CC(C)C)C(=O)N[C@@H](CCCCN)C(=O)O [compound 76, PVLDEFRELLFEXLEALKQKLK] (H-PVLDEFRELLFE[Aib]LEALKQKLK-OH)",9%,41%,,88%,66%,,
"CC(C)C[C@H](NC(=O)[C@H](C)NC(=O)[C@H](CCC(=O)O)NC(=O)[C@H](CC(C)C)NC(=O)C(C)(C)NC(=O)[C@H](CCC(=O)O)NC(=O)[C@H](CC(N)=O)NC(=O)[C@H](CC(C)C)NC(=O)[C@H](CC(C)C)NC(=O)[C@H](Cc1c[nH]c2ccccc12)NC(=O)[C@H](CCCNC(=N)N)NC(=O)[C@H](Cc1ccccc1)NC(=O)[C@H](CC(C)C)NC(=O)[C@H](CC(=O)O)NC(=O)[C@H](CC(C)C)NC(=O)[C@@H](NC(=O)[C@@H]1CCCN1)C(C)C)C(=O)N[C@@H](CCCCN)C(=O)N[C@@H](CCC(N)=O)C(=O)N[C@@H](CCCCN)C(=O)N[C@@H](CC(C)C)C(=O)N[C@@H](CCCCN)C(=O)O [compound 108, PVLDLFRWLLNEXLEALKQKLK] (H-PVLDLFRWLLNE[Aib]LEALKQKLK-OH)",0%,28%,,55%,54%,,
PVLDAFRELLEALAQLKK [compound 223],8%,21%,23%,56%,51%,,
"CC(C)C[C@H](NC(=O)[C@H](C)NC(=O)[C@H](CCC(=O)O)NC(=O)[C@H](CC(C)C)NC(=O)C(C)(C)NC(=O)[C@H](CCC(=O)O)NC(=O)[C@H](CC(N)=O)NC(=O)[C@H](CC(C)C)NC(=O)[C@H](CC(C)C)NC(=O)[C@H](CCC(=O)O)NC(=O)[C@H](CCCNC(=N)N)NC(=O)[C@H](Cc1ccccc1)NC(=O)[C@H](CCC(=O)O)NC(=O)[C@H](CC(=O)O)NC(=O)[C@H](CC(C)C)NC(=O)[C@@H](NC(=O)[C@@H]1CCCN1)C(C)C)C(=O)N[C@@H](CCCCN)C(=O)N[C@@H](CCC(N)=O)C(=O)N[C@@H](CCCCN)C(=O)N[C@@H](CC(C)C)C(=O)N[C@@H](CCCCN)C(=O)O [compound 91, PVLDEFRELLNEXLEALKQKLK] (H-PVLDEFRELLNE[Aib]LEALKQKLK-OH)",6%,43%,,100%,100%,,
CC(C)C[C@H](NC(=O)[C@H](C)NC(=O)[C@H](CCC(=O)O)NC(=O)[C@H](CC(C)C)NC(=O)[C@H](CC(C)C)NC(=O)[C@H](CCC(=O)O)NC(=O)[C@H](CC(N)=O)NC(=O)[C@H](CC(C)C)NC(=O)[C@H](CC(C)C)NC(=O)[C@H](CCC(=O)O)NC(=O)[C@H](CCCNC(=N)N)NC(=O)[C@H](Cc1ccccc1)NC(=O)[C@H](CC(C)C)NC(=O)[C@H](CC(=O)O)NC(=O)[C@H](CC(C)C)NC(=O)[C@@H](NC(=O)[C@@H]1CCCN1S(=O)(=O)c1cccc2c(N(C)C)cccc12)C(C)C)C(=O)N[C@@H](CCCCN)C(=O)N[C@@H](CCC(N)=O)C(=O)N[C@@H](CCCCN)C(=O)N[C@@H](CC(C)C)C(=O)N[C@@H](CCCCN)C(=O)O [compound 30],,85%,98%,,90%,38%,90%
PVLDLFRELLNELLEWLKQKLK [compound 3],98%,70%,80%,95%,95%,,
Ac-PVLDLFRELLEELKQKLK-NH2 [compound 193],96%,34%,87%,88%,87%,,
CC(C)C[C@H](NC(=O)[C@H](CCCCN)NC(=O)[C@H](CCC(N)=O)NC(=O)[C@H](CCCCN)NC(=O)[C@H](CC(C)C)NC(=O)[C@@H](N)CCCCN)C(=O)N[C@@H](C)C(=O)N[C@@H](CCC(=O)O)C(=O)N[C@@H](CC(C)C)C(=O)N[C@@H](CC(C)C)C(=O)N[C@@H](CCC(=O)O)C(=O)N[C@@H](CC(N)=O)C(=O)N[C@@H](CC(C)C)C(=O)N[C@@H](CC(C)C)C(=O)N[C@@H](CCC(=O)O)C(=O)N[C@@H](CCCNC(=N)N)C(=O)N[C@@H](Cc1ccccc1)C(=O)N[C@@H](CC(C)C)C(=O)N[C@@H](CC(=O)O)C(=O)N[C@@H](CC(C)C)C(=O)N[C@H](C(=O)N1CCC[C@H]1C(=O)O)C(C)C [compound 99],2%,72%,80%,88%,80%,,
VLDLFRELLNELLEALKQKLK [compound 67],14%,81%,84%,90%,94%,,
Ac-PVLDLFRELLEEWKQKLK-NH2 [compound 215],38%,28%,53%,63%,68%,,
"EWLKAFYEKVLEKLKELF [peptide 248, reference compound]",3%,18%,13%,45%,,,
PVLELFENLLERLWDALQKKLK [compound 163],26%,27%,,53%,55%,,
"CC(C)C[C@H](NC(=O)[C@H](C)NC(=O)[C@H](CCC(=O)O)NC(=O)[C@H](CC(C)C)NC(=O)C(C)(C)NC(=O)[C@H](CCC(=O)O)NC(=O)[C@H](Cc1c[nH]c2ccccc12)NC(=O)[C@H](CC(C)C)NC(=O)[C@H](CC(C)C)NC(=O)[C@H](CCC(=O)O)NC(=O)[C@H](CCCNC(=N)N)NC(=O)[C@H](Cc1ccccc1)NC(=O)[C@H](CC(C)C)NC(=O)[C@H](CC(=O)O)NC(=O)[C@H](CC(C)C)NC(=O)[C@@H](NC(=O)[C@@H]1CCCN1)C(C)C)C(=O)N[C@@H](CCCCN)C(=O)N[C@@H](CCC(N)=O)C(=O)N[C@@H](CCCCN)C(=O)N[C@@H](CC(C)C)C(=O)N[C@@H](CCCCN)C(=O)O [compound 50, PVLDLFRELLWEXLEALKQKLK] (H-PVLDLFRELLWE[Aib]LEALKQKLK-OH)",21%,68%,89%,84%,76%,,
PVLDLFRNLLEKLLEALEQKLK [compound 49],22%,57%,52%,65%,57%,,
